Source: PubChem BioAssay AID504419 (The Scripps Research Institute Molecular Screening Center, 2011)
“And” between values parts separate entries of the source, which are not always exact repeats. Identical values can stand only once. The source made the active and inactive calls. The rule behind the calls is not given here.

How the values were obtained:
[1] = biological target: NS3h 2a (JFH1); assay: strain-dependent HCV NS3h unwinding inhibition – biochemical, real-time fluorescence, genotypes 2a and 1b, Set 2, selectivity assay for HCV NS3 helicase inhibitor project, late-stage follow-up (AID 504419); details: Recombinant NS3 helicase
[2] = biological target: NS3h 1b (con1); assay: as above; details: Recombinant NS3 helicase

| SMILES | IC50 [1] | IC50 [2] |
| --- | --- | --- |
| COc1cc(OC)c2c(-c3ccccc3)cc(=O)oc2c1[C@H](CCN1CCN(c2ccccc2)CC1)c1ccc(N(C)C)cc1 | > 80.3 µM (inactive) | > 33.2 µM (inactive) |
| CCOc1ccc(C2C(C(=O)c3ccc(C)o3)=C(O)C(=O)N2c2cc(C)on2)cc1 (stereo not given) | > 100 µM (inactive) | > 100 µM (inactive) |
| O=C1OC(c2ccc(F)cc2)=C/C1=C/c1ccc([N+](=O)[O-])o1 | > 100 µM (inactive) | > 100 µM (inactive) |
| CCCCOc1ccc(C2C(C(=O)c3ccc(C)o3)=C(O)C(=O)N2c2cc(C)on2)cc1 (stereo not given) | > 100 µM (inactive) | > 100 µM (inactive) |
| COc1cc(Br)cc(C2C(C(=O)c3ccc(C)o3)=C(O)C(=O)N2c2cc(C)on2)c1OC (stereo not given) | > 100 µM (inactive) | > 100 µM (inactive) |
| CCN(CC)S(=O)(=O)c1cccc(C(=O)N/N=C/c2ccc(O)c(O)c2O)c1 | > 100 µM (inactive) | > 100 µM (inactive) |
| COc1ccc([C@H]2C[C@@H](c3ccccc3)Oc3cc(OC)c(OC)c(OC)c32)cc1 | > 100 µM (inactive) | > 100 µM (inactive) |
| NS(=O)(=O)c1ccc2nc(NC(=O)c3ccc4ncsc4c3)sc2c1 | > 10.9 µM (inactive) | inactive |
| CCCCCOc1ccc(C2C(C(=O)c3ccc(C)o3)=C(OC)C(=O)N2c2cc(C)on2)cc1 (stereo not given) | > 100 µM (inactive) | > 100 µM (inactive) |
| CNc1ccc(Br)cc(C(=O)/C=C/c2cc(OC)ccc2OC)c1=O | > 100 µM (inactive) | > 100 µM (inactive) |
| CCOc1ccc(N2C(=O)C3Sc4[nH]c(=O)sc4C(/C=C/c4ccccc4)C3C2=O)cc1 (stereo not given) | > 100 µM (inactive) | > 100 µM (inactive) |
| Cc1ccc(C(=O)C2=C(O)C(=O)N(Cc3ccco3)C2c2cc(Cl)cc(Cl)c2)o1 (stereo not given) | > 100 µM (inactive) | > 100 µM (inactive) |
| CCCCCCCCCc1nc2sc3c(c2c(=O)n1NC(=O)c1ccccc1[N+](=O)[O-])CC(C)(C)OC3 | > 100 µM (inactive) | > 100 µM (inactive) |
| CN(C)S(=O)(=O)c1cccc(NC(=S)N/N=C/c2cc(Br)ccc2O)c1 | > 100 µM (inactive) | > 100 µM (inactive) |
| O=c1c(O)cccc2cc(O)c(O)c(O)c12 | > 100 µM (inactive) | > 100 µM (inactive) |
| CCCCOc1ccccc1C(=O)NNC(=S)NC(=O)c1ccccc1[N+](=O)[O-] | > 100 µM (inactive) | > 100 µM (inactive) |
| N#C/C(=C\c1ccc(O)c(O)c1)S(=O)(=O)c1ccccc1 | > 100 µM (inactive) | > 100 µM (inactive) |
| CN(C)c1ccc(O)c2c1C[C@H]1C[C@H]3[C@H](N(C)C)C(=O)C(C(N)=O)=C(O)[C@@]3(O)C(=O)C1=C2O | > 100 µM (inactive) | inactive |
| COc1cc2oc(=O)cc(-c3ccc(-c4ccc(CO)cc4)cc3)c2c(OC)c1OC | > 100 µM (inactive) | > 100 µM (inactive) |
| C/C(=N\NC(N)=S)c1cc(-c2ccccc2)c(-c2ccccc2)s1 | > 100 µM (inactive) | > 100 µM (inactive) |
| CC1CCCCC1NC(=O)COC(=O)c1c2c(nc3ccccc13)/C(=C/c1ccco1)CC2 (stereo not given) | > 100 µM (inactive) | inactive |

| SMILES | IC50 [1] | IC50 [2] |
| --- | --- | --- |
| COc1cc(Br)cc(C2C(C(=O)c3ccc(C)o3)=C(O)C(=O)N2Cc2ccco2)c1OC (stereo not given) | > 100 µM (inactive) | > 100 µM (inactive) |
| Cc1cc(N2C(=O)C(O)=C(C(=O)c3ccc(C)o3)C2c2cccc(Cl)c2)no1 (stereo not given) | > 100 µM (inactive) | > 100 µM (inactive) |
| COc1cc(OC)c2ccc(=O)oc2c1[C@H](CCN1CCN(c2ccccc2)CC1)c1ccc(N(C)C)cc1 | > 100 µM (inactive) | > 100 µM (inactive) |
| CCc1cc2c(=O)n(Cc3ccco3)c(SCc3c(C)noc3C)nc2s1 | > 100 µM (inactive) | > 100 µM (inactive) |
| CCOc1ccc(C2C(C(=O)c3ccc(C)o3)=C(O)C(=O)N2Cc2ccco2)cc1 (stereo not given) | > 100 µM (inactive) | > 100 µM (inactive) |
| C=C1c2cccc(O)c2C(O)=C2C(=O)[C@]3(O)C(O)=C(C(N)=O)C(=O)[C@@H](N(C)C)[C@@H]3[C@@H](O)[C@H]12 | > 100 µM (inactive) | inactive |
| Cc1ccc(/C=C/C(=O)Nc2ccc([N+](=O)[O-])c(NC(=O)/C=C/c3ccc(C)o3)c2)o1 | > 100 µM (inactive) | > 38.1 µM (inactive) |
| Cc1cc(N2C(=O)C(O)=C(C(=O)c3ccc(C)o3)C2c2cc(Cl)cc(Cl)c2)no1 (stereo not given) | > 100 µM (inactive) | > 100 µM (inactive) |
| COc1cc2oc(=O)cc(-c3ccc(-c4ccc(NC(C)=O)cc4)cc3)c2c(OC)c1OC | > 100 µM (inactive) | > 100 µM (inactive) |
| NC(=S)N/N=C/c1ccc(C23CC4CC(CC(C4)C2)C3)cc1 | > 100 µM (inactive) | > 100 µM (inactive) |
| Cc1ccc2nc(-c3ccc4nc(-c5ccc6nc(-c7ccc8nc(-c9ccc(N)cc9)sc8c7)sc6c5)sc4c3)sc2c1S(=O)(=O)O | 1.98 µM | 2.13 µM |
| O=C(c1ccc2nc(-c3ccco3)c(-c3ccco3)nc2c1)N1CCN(c2ccccc2)CC1 | > 100 µM (inactive) | > 100 µM (inactive) |
| Cc1ccc(C(=O)C2=C(O)C(=O)N(Cc3ccccc3)C2c2cc(Cl)cc(Cl)c2)o1 (stereo not given) | > 100 µM (inactive) | > 100 µM (inactive) |
| COc1c(N2CCN(C(=S)NCc3ccccc3)C(C)C2)c(F)cc2c(=O)c(C(=O)O)cn(C3CC3)c12 (stereo not given) | > 100 µM (inactive) | > 100 µM (inactive) |
| Cc1ccc(NC(=O)C2=C(c3ccccc3)S(=O)(=O)CCS2(=O)=O)cc1 | > 100 µM (inactive) | > 100 µM (inactive) |
| COc1ccc(N=Nc2ccc(O)c3ncccc23)c(S(=O)(=O)N(C)C)c1 | > 100 µM (inactive) | > 100 µM (inactive) |
| NS(=O)(=O)c1ccc2nc(NC(=O)c3ccc4ncoc4c3)sc2c1 | inactive | > 26.5 µM (inactive) |
| COc1cc(Br)cc(C2C(C(=O)c3ccc(C)o3)=C(O)C(=O)N2Cc2ccccc2)c1OC (stereo not given) | > 100 µM (inactive) | > 100 µM (inactive) |
| O=c1c2c(-c3ccco3)csc2nc(SCc2cn3ncccc3n2)n1-c1ccccc1 | > 100 µM (inactive) | > 100 µM (inactive) |
| O=C(Nc1nc(-c2ccco2)c(-c2ccco2)s1)C1CCC1 | > 100 µM (inactive) | > 16.4 µM (inactive) |
| CC(C)C(C)(C#N)NC(=O)CSc1nc2scc(-c3ccco3)c2c(=O)n1-c1ccccc1 (stereo not given) | > 100 µM (inactive) | > 100 µM (inactive) |

Continued, values first:

| IC50 [1] | IC50 [2] | SMILES |
| --- | --- | --- |
| 2.75 µM | 5.38 µM | Cc1ccc2nc(-c3ccc4nc(-c5ccc(NC(=O)c6ccc(F)cc6)cc5)sc4c3)sc2c1S(=O)(=O)O |
| inactive | inactive | Cc1ccc2nc(-c3ccc4nc(NC(=O)c5ccc6ncoc6c5)sc4c3)sc2c1 |
| 3.35 µM | 3.69 µM | Cc1ccc(C(=O)Nc2ccc(-c3nc4ccc(-c5nc6ccc(C)c(S(=O)(=O)O)c6s5)cc4s3)cc2)cc1 |
| 6.15 µM | inactive | Cc1ccc2nc(-c3ccc4nc(-c5ccc(NC(=O)c6ccc(N(C)C)cc6)cc5)sc4c3)sc2c1S(=O)(=O)O |
| > 100 µM (inactive) | > 100 µM (inactive) | Cc1ccc2nc(-c3ccc(NC(=O)c4ccc(F)cc4)cc3)sc2c1 |
| 4.96 µM | inactive | Cc1ccc2nc(-c3ccc4nc(-c5ccc(NC(=O)c6ccc(C(C)(C)C)cc6)cc5)sc4c3)sc2c1S(=O)(=O)O |
| inactive | inactive | COc1ccc(S(=O)(=O)Nc2ccc(-c3nc4ccc(-c5nc6ccc(C)c(S(=O)(=O)O)c6s5)cc4s3)cc2)cc1 |
| 2.66 µM | 4.31 µM | Cc1ccc2nc(-c3ccc4nc(-c5ccc(NC(=O)c6ccc(Cl)cc6)cc5)sc4c3)sc2c1S(=O)(=O)O |
| 6.04 µM | 6.56 µM | Cc1ccc2nc(-c3ccc4nc(-c5ccc(NC(=O)c6ccc(NC(=O)OCC7c8ccccc8-c8ccccc87)cc6)cc5)sc4c3)sc2c1S(=O)(=O)O |
| > 100 µM (inactive) | > 24 µM (inactive) | Cc1ccc2nc(-c3ccc(NC(=S)Nc4ccccc4Br)cc3)sc2c1 |
| 1.71 µM | 2.93 µM | Cc1ccc2nc(-c3ccc4nc(-c5ccc(NC(=O)c6ccc7ccccc7c6)cc5)sc4c3)sc2c1S(=O)(=O)O |
| 4.98 µM | 6.85 µM | COC(=O)c1ccc(C(=O)Nc2ccc(-c3nc4ccc(-c5nc6ccc(C)c(S(=O)(=O)O)c6s5)cc4s3)cc2)cc1 |
| inactive | inactive | Cc1ccc2nc(-c3ccc4nc(-c5ccc(N)cc5)sc4c3)sc2c1S(=O)(=O)O |
| 2.52 µM | 7.57 µM | Cc1ccc2nc(-c3ccc4nc(-c5ccc(NC(=O)c6ccc7nc(-c8ccc(N)cc8)sc7c6)cc5)sc4c3)sc2c1S(=O)(=O)O |
| 4.07 µM | inactive | Cc1ccc2nc(-c3ccc4nc(-c5ccc(NC(=O)c6ccccc6)cc5)sc4c3)sc2c1S(=O)(=O)O |
| inactive | inactive | Cc1ccc2nc(-c3ccc(NC(=O)c4ccc5ncoc5c4)cc3)sc2c1 |
| 4.39 µM | 7.85 µM | Cc1ccc2nc(-c3ccc4nc(-c5ccc(NC(=O)c6ccc(N)cc6)cc5)sc4c3)sc2c1S(=O)(=O)O |
| > 100 µM (inactive) | > 100 µM (inactive) | Cc1ccc2nc(-c3ccc(NC(=O)c4ccc(F)cc4)cc3)sc2c1S(=O)(=O)O |
| 2.51 µM | 1.76 µM | Cc1ccc2nc(-c3ccc4nc(-c5ccc(NC(=O)c6ccc(C(F)(F)F)cc6)cc5)sc4c3)sc2c1S(=O)(=O)O |
| 3.21 µM | 5.93 µM | Cc1ccc(NC(=O)Nc2ccc(-c3nc4ccc(-c5nc6ccc(C)c(S(=O)(=O)O)c6s5)cc4s3)cc2)cc1 |
| 2.09 µM and > 28 µM (inactive) | – | Cc1ccc2nc(-c3ccc4nc(-c5ccc(NC(=O)c6ccc7nc(-c8ccc(NC(=O)OCC9c%10ccccc%10-c%10ccccc%109)cc8)sc7c6)cc5)sc4c3)sc2c1S(=O)(=O)O |
